Literature values in patent US8741563B2, “Metronidazole resistance in trichomonas vaginalis and single nucleotide polymorphisms” (priority 2011, dated 2014).

Tested on: Trichomonas vaginalis
Details: reported effectiveness of metronidazole treatment

## Cc1ncc([N+](=O)[O-])n1CCO [Metronidazole]
  treatment effective: 85-95%
